Target: T1, recombinant uPAR (Homo sapiens, UniProt Q03405)
T1 construct: purchased R&D systems
Assay: Competitive ELISA uPAR binding assay (displacement of uPAR from immobilized urokinase)
Conditions: for IC50 / Ki: ELISA assay, competition with urokinase for recombinant uPAR; for Ratio of IC50 (Compound)/IC50 6-ABT-1: relative to control 6-ABT-1
Protocol: The affinity of derivatives are assayed using a competitive ELISA binding assay. The assay involves the immobilization of urokinase, a natural high affinity ligand for uPAR followed by the addition of a fixed concentration of recombinant uPAR protein and increasing concentrations of test compounds which competes with urokinase for binding to the uPA binding site of uPAR. Following several washing steps, the amount of uPAR bound is quantified by a biotinylated anti-uPAR antibody and avidin-HRP and can be fit to a competitive binding model allowing for determination of the uPAR/test compound Kd.
All derivatives were assessed for their ability to hind selectively to recombinant uPAR in vitro using a competitive ELISA binding assay. DMSO stock solutions of each derivative stored at −20° C. were titrated into wells pre-coated with human urokinase (isolated from human urine, ProSpec 1 mg/mL deionized water 18.5 μM) in the presence of uPAR. Selective binding to uPAR by compounds at the uPA binding site competes with uPAR-uPA binding which is required for a positive UV 450 nm absorbance signal. Increasing concentrations of test compound displace increasing amounts of uPAR from uPA which is detected by anti-uPAR/biotin labeled antibodies followed by avidin-HRP.
ELISA assay substantially as described above was used to test certain of the compounds of the present invention for biological characteristics. In addition, the compound 6-ABT-1 as described in WO2017/023994 was tested as a control.

T1 sequence (Q03405 23-305): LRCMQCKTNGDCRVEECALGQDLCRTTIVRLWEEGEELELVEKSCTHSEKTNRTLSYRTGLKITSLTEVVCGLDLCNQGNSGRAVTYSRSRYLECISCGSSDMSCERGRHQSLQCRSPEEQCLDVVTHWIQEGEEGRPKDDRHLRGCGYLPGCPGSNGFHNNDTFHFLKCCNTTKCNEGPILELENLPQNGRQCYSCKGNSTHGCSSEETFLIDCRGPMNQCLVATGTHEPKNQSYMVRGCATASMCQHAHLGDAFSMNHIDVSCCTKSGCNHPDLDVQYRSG

Row | IC50 | Ki | Ratio of IC50 (Compound)/IC50 6-ABT-1 | Structure (SMILES)
1 | > 100000 nM | > 2000 nM | 71.4 | COC(=O)c1ccc(Nc2cc(N3CCC(C(=O)NCCCOCCOCCOCCCNc4ccc([N+](=O)[O-])cc4[N+](=O)[O-])CC3)c3noc4c3c2C(=O)c2ccccc2-4)c(Cl)c1 [ARM-U2 derivative 12-ABT-5]
2 | 544 nM | 11 nM | 0.7 | O=C1c2ccccc2-c2onc3c(N4CCC(C(=O)NCCCOCCOCCOCCCNc5ccc([N+](=O)[O-])cc5[N+](=O)[O-])CC4)cc(Nc4ccc(S(=O)(=O)O)cc4S(=O)(=O)O)c1c23 [ARM-U2 derivative 6-ABT-5]
3 | > 100000 nM | > 2000 nM | 71.4 | COC(=O)c1ccc(Nc2cc(N3CCC(C(=O)NCCCOCCOCCOCCCNc4ccc([N+](=O)[O-])cc4[N+](=O)[O-])CC3)c3noc4c3c2C(=O)c2ccccc2-4)cc1 [ARM-U2 derivative 10-ABT-5]
4 | > 100000 nM | > 2000 nM | 71.4 | COC(=O)c1cc(Nc2cc(N3CCC(C(=O)NCCCOCCOCCOCCCNc4ccc([N+](=O)[O-])cc4[N+](=O)[O-])CC3)c3noc4c3c2C(=O)c2ccccc2-4)nn1C [ARM-U2 derivative 13-ABT-5]
5 | > 100000 nM | > 2000 nM | >56 | COC(=O)c1ccc(Nc2cc(N3CCC(C(=O)NCCCOCCOCCOCCCNc4ccc([N+](=O)[O-])cc4[N+](=O)[O-])CC3)c3noc4c3c2C(=O)c2ccccc2-4)c(C(=O)OC)c1 [ARM-U2 derivative 11-ABT-5]
6 | 540 nM | 11 nM | 0.28 | COc1ccc(Nc2cc(N3CCC(C(=O)NCCCOCCOCCOCCCNc4ccc([N+](=O)[O-])cc4[N+](=O)[O-])CC3)c3noc4c3c2C(=O)c2ccccc2-4)c(S(=O)(=O)O)c1 [ARM-U2 derivative 8-ABT-5]
7 | 18000 nM | 371 nM | 12.85 | O=C1c2ccccc2-c2onc3c(N4CCC(C(=O)NCCCOCCOCCOCCCNc5ccc([N+](=O)[O-])cc5[N+](=O)[O-])CC4)cc(Nc4cc(C5CC5)no4)c1c23 [ARM-U2 derivative 15-ABT-5]
8 | 485 nM | 9.84 nM | 0.255 | O=C1c2ccccc2-c2onc3c(N4CCC(C(=O)NCCCOCCOCCOCCCNc5ccc([N+](=O)[O-])cc5[N+](=O)[O-])CC4)cc(Nc4ccc(Cl)cc4S(=O)(=O)O)c1c23 [ARM-U2 derivative 9-ABT-5]
9 | > 100000 nM | > 2000 nM | 71.4 | NS(=O)(=O)c1ccc(Nc2cc(N3CCC(C(=O)NCCCOCCOCCOCCCNc4ccc([N+](=O)[O-])cc4[N+](=O)[O-])CC3)c3noc4c3c2C(=O)c2ccccc2-4)cc1 [ARM-U2 derivative 14-ABT-5]
10 | 2360 nM | 48.4 nM | 1.15 | O=C1c2ccccc2-c2onc3c(N4CCC(C(=O)NCCCOCCOCCOCCCNc5ccc([N+](=O)[O-])cc5[N+](=O)[O-])CC4)cc(Nc4ccc(S(=O)(=O)O)cc4)c1c23 [ARM-U2 derivative 7-ABT-5]
11 | 3090 nM | 63.5 nM | 0.98 | O=C(O)c1cc(Cl)ccc1Nc1cc(N2CCC(C(=O)NCCCOCCOCCOCCCNc3ccc([N+](=O)[O-])cc3[N+](=O)[O-])CC2)c2noc3c2c1C(=O)c1ccccc1-3 [ARM-U2 derivative 18-ABT-5]
12 | 55200 nM | 1140 nM | 39.41 | CCOC(=O)c1cn(C)nc1Nc1cc(N2CCC(C(=O)NCCCOCCOCCOCCCNc3ccc([N+](=O)[O-])cc3[N+](=O)[O-])CC2)c2noc3c2c1C(=O)c1ccccc1-3 [ARM-U2 derivative 16-ABT-5]
13 | > 100000 nM | > 2000 nM | >31 | COC(=O)c1cc(OC)ccc1Nc1cc(N2CCC(C(=O)NCCCOCCOCCOCCCNc3ccc([N+](=O)[O-])cc3[N+](=O)[O-])CC2)c2noc3c2c1C(=O)c1ccccc1-3 [ARM-U2 derivative 17-ABT-5]
14 | 2570 nM | 52.7 nM | 0.81 | O=C1c2ccccc2-c2onc3c(N4CCC(C(=O)NCCCOCCOCCOCCCNc5ccc([N+](=O)[O-])cc5[N+](=O)[O-])CC4)cc(Nc4cc(S(=O)(=O)O)ccc4S(=O)(=O)O)c1c23 [ARM-U2 derivative 19-ABT-5]
